Data set [1] concerns HCT-116. The experiment in a line: Growth inhibition of human HCT116 cells after 24 hrs by MTT assay. It is filed as functional, cell-based. For orientation: Tetrazolium dyes change colour on reduction, which living cells bring about.
Data set [2] deals with CT26. Kind of data set: Growth inhibition of mouse CT26 cells after 24 hrs by MTT assay. It is filed as functional, cell-based.
Data set [3] has as its system CT26. Kind of data set: Antitumor activity against mouse CT26 cells implanted in Balb/c mouse assessed as solid tumor growth inhibition at 5 mg/kg, iv for 14 consecutive days measured on day 15 relative to control. The following applies: 360 h, read-out: TGI. It is filed as functional.
The subject of data set [4] is HCT-116. The experiment in a line: Downregulation of beta-catenin protein expression in human HCT116 cells at 10 uM after 24 hrs by Western blot method. It is filed as functional, cell-based. For orientation: In western blotting, separated proteins are transferred to a membrane and probed.
Data set [5] concerns CT26. Kind of data set: Induction of apoptosis in mouse CT26 cells assessed as necrotic cells at 10 uM after 24 hrs by annexin V-FITC/propidium iodide staining based flow cytometry (reference value: 4.36%). It is filed as functional. For orientation: In flow cytometry, cells or beads pass a laser one at a time.
In data set [6] the test system is HCT-116. The experiment in a line: Induction of apoptosis in human HCT116 cells assessed as necrotic cells at 10 uM after 24 hrs by annexin V-FITC/propidium iodide staining based flow cytometry (reference value: 3.9%). It counts as functional.
Data set [7] deals with CT26. Kind of data set: Induction of apoptosis in mouse CT26 cells assessed as live cells at 10 uM after 24 hrs by annexin V-FITC/propidium iodide staining based flow cytometry (reference value: 89.47%). It counts as functional.
Data set [8] concerns Mus musculus. Kind of data set: Toxicity in Balb/c mouse implanted with mouse CT26 cells assessed as changes in body weight at 5 mg/kg, iv for 14 consecutive days starting from day 8 post tumor implantation. It is filed as organism-based. The following applies: in vivo.
Data set [9] has as its system HCT-116. Kind of data set: Antimigratory activity against human HCT116 cells at 10 uM after 24 hrs by crystal violet staining based transwell assay. It is filed as functional, cell-based.
The subject of another data set is SMMC-7721. The experiment in a line: Growth inhibition of human SMMC7721 cells after 48 hrs by MTT assay. The following applies: SMMC-7721, 48 h. It counts as functional, cell-based.
The test system of data set [10] is HCT-116. Kind of data set: Induction of apoptosis in human HCT116 cells assessed as late apoptotic cells at 10 uM after 24 hrs by annexin V-FITC/propidium iodide staining based flow cytometry (reference value: 2.03%). It counts as functional.
The subject of data set [11] is HCT-116. The experiment in a line: Induction of apoptosis in human HCT116 cells assessed as early apoptotic cells at 10 uM after 24 hrs by annexin V-FITC/propidium iodide staining based flow cytometry (reference value: 4.1%). It is filed as functional.
For data set [12], the system named is HCT-116. The experiment in a line: Induction of apoptosis in human HCT116 cells assessed as live cells at 10 uM after 24 hrs by annexin V-FITC/propidium iodide staining based flow cytometry (reference value: 89.97%). It counts as functional.
For the next data set, the system named is HepG2. Kind of data set: Growth inhibition of human HepG2 cells after 48 hrs by MTT assay. It counts as functional, cell-based. The following applies: HepG2, 48 h.
Data set [13] has as its system HCT-116. Kind of data set: Growth inhibition of human HCT116 cells after 48 hrs by MTT assay. It counts as functional, cell-based. The following applies: HCT-116, 48 h.
Data set [14] relates to CT26. The experiment in a line: Antimigratory activity against mouse CT26 cells at 10 uM after 24 hrs by crystal violet staining based transwell assay. It is filed as functional, cell-based.
Data set [15] has as its system CT26. Kind of data set: Induction of apoptosis in mouse CT26 cells assessed as early apoptotic cells at 10 uM after 24 hrs by annexin V-FITC/propidium iodide staining based flow cytometry (reference value: 3.91%). It is filed as functional.
Data set [16] has as its system CT26. The experiment in a line: Antimetastatic activity against mouse CT26 cells implanted in Balb/c mouse assessed as inhibition of pulmonary metastasis nodules at 5 mg/kg, iv for 7 consecutive days starting from day 8 post tumor implantation measured on day 15 post tumor implantation relative to control. It is filed as functional.
Data set [17] deals with HCT-116. Kind of data set: Downregulation of MMP2 protein expression in human HCT116 cells at 10 uM after 24 hrs by Western blot method. It counts as functional, cell-based.
The subject of data set [18] is CT26. Kind of data set: Induction of apoptosis in mouse CT26 cells assessed as late apoptotic cells at 10 uM after 24 hrs by annexin V-FITC/propidium iodide staining based flow cytometry (reference value: 2.26%). It is filed as functional.
The test system of data set [19] is Mus musculus. Kind of data set: Toxicity in Balb/c mouse implanted with mouse CT26 cells assessed as changes in body weight at 5 mg/kg, iv for 7 consecutive days starting from day 8 post tumor implantation. It is filed as organism-based. The following applies: in vivo.
The subject of another data set is K562. The experiment in a line: Growth inhibition of human K562 cells after 48 hrs by MTT assay. It counts as functional, cell-based. The following applies: K562, 48 h.

The source made the active and inactive calls. No cut-off for these calls is given here.

For `CN(C)CCN1C(=O)c2cccc3cc(N)cc(c23)C1=O` [AMONAFIDE], the “growth inhibition (GI)” value in the data set on HCT-116 [1] and with CT26 [2] was “Dose-dependent effect” throughout. For the same molecule, the IC50 in the data set on HCT-116 [1] (HCT-116, 24 h) was 8.55 µM; in the data set on CT26 [2] (CT26, 24 h), 11.7 µM; in the data set with SMMC-7721, 10.3 µM; in the data set on HepG2 it was 11.7 µM; with HCT-116 [13], 7.18 µM; in the data set on K562, 20.1 µM. In addition, the inhibition in vivo at 5 mg/kg turned out to be 20% in the data set on CT26 [3] and 66% with CT26 [16]. For the same molecule, the outcome with HCT-116 [4], in the data set on HCT-116 [9], in the data set with CT26 [14] and in the data set on HCT-116 [17] was Active. Moreover, the Activity with CT26 [5] was 3.92%; with HCT-116 [6] it was 7.6%; in the data set with CT26 [7], 48.49%; in the data set on Mus musculus [8], “Non-Toxic”; with HCT-116 [10], 36.9%; in the data set with HCT-116 [11], 14.9%. In addition, the Activity in the data set with HCT-116 [12] is given as 40.53%; in the data set on CT26 [15] it was 27.2%; with CT26 [18], 20.3%; in the data set with Mus musculus [19] it was “Non-Toxic”.
Consider `CCCCN1C(=O)c2cccc3c(NC(=O)CNCCCCN)ccc1c23`, for which the IC50 in the data set with SMMC-7721, in the data set on HepG2, with HCT-116 [13] and in the data set with K562 was more than 50 µM throughout.
For `CCCCN1C(=O)c2cccc3c(NC(=O)CNCCCCNCCCCN)ccc1c23`, the concentration for half-maximal inhibition (IC50) with SMMC-7721 was 23.3 µM; with HepG2 it was 21.9 µM; in the data set on HCT-116 [13] it was more than 50 µM; in the data set on K562, more than 50 µM.
As to `CCCCN1C(=O)c2cccc3c(CNCCCNCCCN)ccc1c23`, the IC50 is 5.59 µM with SMMC-7721, 3.27 µM in the data set on HepG2, 28.3 µM in the data set on HCT-116 [13] and 23.5 µM in the data set with K562.
`NCCCNCCCNCCCN1C(=O)c2cccc3cccc1c23`: the IC50 in the data set with SMMC-7721 stood at 19.4 µM; in the data set on HepG2 it was 14.6 µM; in the data set on HCT-116 [13] it was 12 µM; in the data set on K562 it was 26.1 µM.
With `NCCCCNCCCCN1C(=O)c2cccc3cccc1c23`, the IC50 with SMMC-7721 is 43.9 µM; in the data set on HepG2, more than 50 µM; with HCT-116 [13] it was more than 50 µM; in the data set with K562, more than 50 µM.
As to `CCCCN1C(=O)c2cccc3c(NC(=O)CNCCCNCCCN)ccc1c23`, the IC50 in the data set with SMMC-7721, in the data set on HepG2, with HCT-116 [13] and in the data set with K562 was more than 50 µM each time.
With `CCCCN1C(=O)c2cccc3c(NC(=O)CNCCCCNCCCCNCCCCN)ccc1c23`, the IC50 with SMMC-7721 was 18 µM; with HepG2, 16.1 µM; with HCT-116 [13] it was more than 50 µM; with K562, more than 50 µM.
In the case of `CCCCN1C(=O)c2cccc3c(NC(=O)CNCCCNCCCNCCCN)ccc1c23`, the IC50 in the data set with SMMC-7721, with HepG2, with HCT-116 [13] and in the data set on K562 was more than 50 µM in each case.
As for `NCCCNCCCCNCCCN1C(=O)c2cccc3cccc1c23`, the IC50 with SMMC-7721 amounted to 26.1 µM; with HepG2, 25.4 µM; with HCT-116 [13], 11.1 µM; in the data set on K562, 28.7 µM.
Consider `CCCCN1C(=O)c2cccc3c(CNCCCCN)ccc1c23`, for which the IC50 in the data set with SMMC-7721 is 25.4 µM; in the data set on HepG2, 10.1 µM; in the data set on HCT-116 [13] it was 16.9 µM; with K562, more than 50 µM.
Regarding `NCCCNCCCN1C(=O)c2cccc3cccc1c23`, the IC50 in the data set on SMMC-7721 is 19.4 µM; in the data set with HepG2, more than 50 µM; in the data set on HCT-116 [13], 16.9 µM; with K562 it was 11.5 µM.

The IC50 is the concentration that gives 50% inhibition. The low end stands for inhibition by little substance, the high end for a need for much substance.

The record behind these values is ChEMBL document CHEMBL4130638, “Discovery of the Polyamine Conjugate with Benzo[ cd]indol-2(1 H)-one as a Lysosome-Targeted Antimetastatic Agent” (J Med Chem, 2018).
